According to the supplement of paper PMC11208160:

Test: recombinant UMI read abundance after kanamycin selection (control-corrected) (log10(CPM+1)); higher = more efficient recombination; extreme values may be limits of the assay; sequences stand for … in AGTGCAGAGAAAATCGGCCAGTTTTCTCTGCCTGCAGTCCGCATGCCGTGGGACCCCTTGGGTTCTAACCTGTTGCCTAGATTTATGCAGCGGACTGCCTTTCTCCCAAAGTGATAAACCGG…AGGTTGGTTTCACT; site = the 11-nt donor
Description: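 Pooled E. coli donor-specificity screen for the IS621 bridge recombinase. Each library member carries a reprogrammed 11-nt donor and a full-length LE bridge RNA expressed in cis from the natural promoter, with a paired donor-binding loop (8-nt LDG + 4-nt RDG) and a target-binding loop fixed to T5. It is co-electroporated with a T5 target plasmid; recombinase is induced with 0.07 mM IPTG and recombinants are selected on kanamycin. UMIs are counted as CPM, averaged over two biological replicates and corrected by the unselected control. Molecule = full bridge RNA written as DNA, built from the T5 scaffold: LDG = donor specificity nt 1-8, RDG = reverse complement of nt 8-11.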
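Further: IS621 bridge recombinase in Escherichia coli cells against a fixed T5 target plasmid.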

Sequence | recombinant UMI read abundance (log10)
AATGTAACATGGACCGGTTTTCCCGGTAATCCGTATTTGCT (site GATGTAACTAG) | 1.57
AATGTAACATGGACCGGTTTTCCCGGTAATCCGTATTTGCT (site TATGTAACTAG) | 2.39
AATGTGACATGGACCGGTTTTCCCGGTAATCCGTATTTGCT (site AATGTAACTAG) | 2.04
AATGTGACATGGACCGGTTTTCCCGGTAATCCGTATTTGCT (site AATGTCACTAG) | 0.731
AATGTGACATGGACCGGTTTTCCCGGTAATCCGTATTTGCT (site AATGTGACTAG) | 2.65
AATGTGACATGGACCGGTTTTCCCGGTAATCCGTATTTGCT (site AATGTTACTAG) | 0.751
AATGTGTCATGGACCGGTTTTCCCGGTAATCCGTATTTGAA (site AATGTGTCTAT) | 0.324
AATGTGTCATGGACCGGTTTTCCCGGTAATCCGTATTTGAA (site AATGTGTCTCT) | 0.204
AATGTGTCATGGACCGGTTTTCCCGGTAATCCGTATTTGAA (site AATGTGTCTGT) | 0
AATGTGTCATGGACCGGTTTTCCCGGTAATCCGTATTTGAA (site AATGTGTCTTT) | 2.11
AATGTGTCATGGACCGGTTTTCCCGGTAATCCGTATTTGAC (site AAAGTGTCTGT) | 0
AATGTGTCATGGACCGGTTTTCCCGGTAATCCGTATTTGAC (site AACGTGTCTGT) | 0
AATGTGTCATGGACCGGTTTTCCCGGTAATCCGTATTTGAC (site AAGGTGTCTGT) | 1.02
AATGTGTCATGGACCGGTTTTCCCGGTAATCCGTATTTGAC (site AATATGTCTGT) | 0.433
AATGTGTCATGGACCGGTTTTCCCGGTAATCCGTATTTGAC (site AATCTGTCTGT) | 0
AATGTGTCATGGACCGGTTTTCCCGGTAATCCGTATTTGAC (site AATGAGTCTGT) | 0
AATGTGTCATGGACCGGTTTTCCCGGTAATCCGTATTTGAC (site AATGCGTCTGT) | 0
AATGTGTCATGGACCGGTTTTCCCGGTAATCCGTATTTGAC (site AATGGGTCTGT) | 0
AATGTGTCATGGACCGGTTTTCCCGGTAATCCGTATTTGAC (site AATGTATCTGT) | 1.2
AATGTGTCATGGACCGGTTTTCCCGGTAATCCGTATTTGAC (site AATGTCTCTGT) | 0
AATGTGTCATGGACCGGTTTTCCCGGTAATCCGTATTTGAC (site AATGTGACTGT) | 0.00331
AATGTGTCATGGACCGGTTTTCCCGGTAATCCGTATTTGAC (site AATGTGCCTGT) | 0

Sequence | recombinant UMI read abundance (log10)
AATGTGTCATGGACCGGTTTTCCCGGTAATCCGTATTTGAC (site AATGTGGCTGT) | 0
AATGTGTCATGGACCGGTTTTCCCGGTAATCCGTATTTGAC (site AATGTGTCTAT) | 0.00893
AATGTGTCATGGACCGGTTTTCCCGGTAATCCGTATTTGAC (site AATGTGTCTCT) | 0.028
AATGTGTCATGGACCGGTTTTCCCGGTAATCCGTATTTGAC (site AATGTGTCTGA) | 0
AATGTGTCATGGACCGGTTTTCCCGGTAATCCGTATTTGAC (site AATGTGTCTGC) | 0
AATGTGTCATGGACCGGTTTTCCCGGTAATCCGTATTTGAC (site AATGTGTCTGG) | 0
AATGTGTCATGGACCGGTTTTCCCGGTAATCCGTATTTGAC (site AATGTGTCTGT) | 1.77
AATGTGTCATGGACCGGTTTTCCCGGTAATCCGTATTTGAC (site AATGTGTCTTT) | 0.181
AATGTGTCATGGACCGGTTTTCCCGGTAATCCGTATTTGAC (site AATGTTTCTGT) | 0
AATGTGTCATGGACCGGTTTTCCCGGTAATCCGTATTTGAC (site AATTTGTCTGT) | 0
AATGTGTCATGGACCGGTTTTCCCGGTAATCCGTATTTGAC (site ACTGTGTCTGT) | 0
AATGTGTCATGGACCGGTTTTCCCGGTAATCCGTATTTGAC (site AGTGTGTCTGT) | 0
AATGTGTCATGGACCGGTTTTCCCGGTAATCCGTATTTGAC (site ATTGTGTCTGT) | 0.71
AATGTGTCATGGACCGGTTTTCCCGGTAATCCGTATTTGAC (site CATGTGTCTGT) | 0.999
AATGTGTCATGGACCGGTTTTCCCGGTAATCCGTATTTGAC (site GATGTGTCTGT) | 0
AATGTGTCATGGACCGGTTTTCCCGGTAATCCGTATTTGAC (site TATGTGTCTGT) | 1.95
AATGTGTCATGGACCGGTTTTCCCGGTAATCCGTATTTGTC (site AATGTGTCTGA) | 2.97
AATGTGTCATGGACCGGTTTTCCCGGTAATCCGTATTTGTC (site AATGTGTCTGC) | 0.999
AATGTGTCATGGACCGGTTTTCCCGGTAATCCGTATTTGTC (site AATGTGTCTGG) | 1.29
AATGTGTCATGGACCGGTTTTCCCGGTAATCCGTATTTGTC (site AATGTGTCTGT) | 0.364
AATTACGCATGGACCGGTTTTCCCGGTAATCCGTATTTGGA (site AATTAAGCTTC) | 0.428
AATTACGCATGGACCGGTTTTCCCGGTAATCCGTATTTGGA (site AATTACGCTTC) | 0.807

Sequence | recombinant UMI read abundance (log10)
AATTACGCATGGACCGGTTTTCCCGGTAATCCGTATTTGGA (site AATTAGGCTTC) | 0.158
AATTACGCATGGACCGGTTTTCCCGGTAATCCGTATTTGGA (site AATTATGCTTC) | 0.344
AATTATGCATGGACCGGTTTTCCCGGTAATCCGTATTTGCA (site AATTATGCTTA) | 0.00932
AATTATGCATGGACCGGTTTTCCCGGTAATCCGTATTTGCA (site AATTATGCTTC) | 0.00784
AATTATGCATGGACCGGTTTTCCCGGTAATCCGTATTTGCA (site AATTATGCTTG) | 1.85
AATTATGCATGGACCGGTTTTCCCGGTAATCCGTATTTGCA (site AATTATGCTTT) | 0.00931
AATTCTGCATGGACCGGTTTTCCCGGTAATCCGTATTTGGA (site AATTATGCTTC) | 0.384
AATTCTGCATGGACCGGTTTTCCCGGTAATCCGTATTTGGA (site AATTCTGCTTC) | 0.349
AATTCTGCATGGACCGGTTTTCCCGGTAATCCGTATTTGGA (site AATTGTGCTTC) | 0.0372
AATTCTGCATGGACCGGTTTTCCCGGTAATCCGTATTTGGA (site AATTTTGCTTC) | 0.00758
AATTGGACATGGACCGGTTTTCCCGGTAATCCGTATTTGAC (site AATTGGACTGT) | 1.21
AATTGGACATGGACCGGTTTTCCCGGTAATCCGTATTTGAC (site CATTGGACTGT) | 0.955
AATTGGACATGGACCGGTTTTCCCGGTAATCCGTATTTGAC (site GATTGGACTGT) | 0.231
AATTGGACATGGACCGGTTTTCCCGGTAATCCGTATTTGAC (site TATTGGACTGT) | 1.67
AATTGTACATGGACCGGTTTTCCCGGTAATCCGTATTTGTC (site AATTGTACTGA) | 0.692
AATTGTGCATGGACCGGTTTTCCCGGTAATCCGTATTTGAC (site AATTGTGCTGT) | 2.25
AATTGTGCATGGACCGGTTTTCCCGGTAATCCGTATTTGCC (site AATTGTGCTGG) | 0.735
AATTTAACATGGACCGGTTTTCCCGGTAATCCGTATTTGCT (site AATATAACTAG) | 1.68
AATTTAACATGGACCGGTTTTCCCGGTAATCCGTATTTGCT (site AATCTAACTAG) | 1.95
AATTTAACATGGACCGGTTTTCCCGGTAATCCGTATTTGCT (site AATGTAACTAG) | 0.828
AATTTAACATGGACCGGTTTTCCCGGTAATCCGTATTTGCT (site AATTTAACTAG) | 2.28
